Read-outs that look alike come from different tables or passages of the source.
Legend:
[1] = Plasma drug concentrations (pyrimethamine UPLC-MS/MS, VPA assay, unbound dolutegravir) in trial participants; format: in vivo, human; conditions: human, plasma, 6 hours, read-out: Median unbound dolutegravir concentration
Protocol: Self-reported adherence was assessed at each study visit, and empty pill strips were collected after the 2-week intervention phase. […] A gradient (0.3 ml/min) with two eluents was used (A: 2 mM ammonium acetate + 0.1% formic acid in water; B: 2 mM ammonium acetate + 0.1% formic acid in methanol). […] For measurement validation, we performed linearity, correctness, LOD and lower LOQ, repeatability, reproducibility, measurement uncertainty, robustness, and carryover. […] Unbound dolutegravir plasma concentrations were quantified with a validated UPLC-MS/MS bioquantification method as previously described ([61]).

HIV-1 = conditions: cited from earlier work

## C[C@@H]1CCO[C@H]2Cn3cc(C(=O)NCc4ccc(F)cc4F)c(=O)c(O)c3C(=O)N12 [dolutegravir]
[1]; those with pyrimethamine exposure
  concentration at 6 h: 11.7 ng/mL
[1]; those without pyrimethamine exposure
  concentration at 6 h: 10.1 ng/mL

## C/C=C1\NC(=O)[C@H]2CSSCC/C=C/[C@H](CC(=O)N[C@H](C(C)C)C(=O)N2)OC(=O)[C@H](C(C)C)NC1=O [romidepsin]
HIV-1; additional pharmacodynamics studies
  Effect on HIV-1 transcription: no significant effect
HIV-1; initial studies
  Increase in CA US HIV-1 RNA: approximately threefold

## O=C(CCCCCCC(=O)Nc1ccccc1)NO [vorinostat]
HIV-1; at time points during vorinostat
  Mean fold increase in CA US HIV-1 RNA: 2.6 fold
HIV-1; combined with a T cell-inducing HIV-1 vaccine in PLWH who initiated cART during acute HIV-1
  HIV-1 reactivation: No reactivation
HIV-1; vorinostat treatment in postmenopausal women
  Fold change in CA US HIV-1 RNA: 1.5 fold

— article PMC10017042 (Science Advances, 2023)
